Assay results as given in US20150038739A1, “METHOD FOR MANUFACTURING REFINED METHIONINE” (SUMITOMO CHEMICAL COMPANY, LIMITED, priority 2012, published 2015).

- solubility of methionine in pure water (saturated solubility) (pure water, normal temperature and normal pressure): about 3.0 % by weight
- saturated solubility of methionine in alkaline recovered wash water (under 2.0% by weight of concentration of potassium): about 5.0 % by weight
Compound: CSCC[C@H](N)C(=O)O [methionine]
